Experimental findings from ChEMBL document CHEMBL3612044, “Phosphate Chemical Probes Designed for Location Specific Inhibition of Intracellular Carbonic Anhydrases” (J Med Chem, 2015) are described below.

pKi: −log10 of the molar value.

The assay has as its target Carbonic anhydrase 9 (Homo sapiens, UniProt Q16790). The experiment in a line: Inhibition of human carbonic anhydrase-9 by stopped-flow CO2 hydration assay.

In general, pKi refers to the negative decadic logarithm of the Ki, by convention in mol/L. A low value points to a high Ki. The compound `CC(=O)O[C@@H]1[C@@H](OC(C)=O)[C@H](n2cc(-c3ccc(S(N)(=O)=O)cc3)nn2)O[C@H](COP2(=O)OCc3ccccc3O2)[C@H]1OC(C)=O` (stereo not given in full) gave a pKi of 7.07. Consider `NS(=O)(=O)[C@@H]1O[C@H](COP(=O)(O)O)[C@@H](O)[C@H](O)[C@H]1O`, for which the pKi was 6.67. The value for `NS(=O)(=O)c1ccc(-c2cn([C@@H]3O[C@H](COP(=O)(O)O)[C@@H](O)[C@H](O)[C@H]3O)nn2)cc1` was 6.61; that for `CC(=O)O[C@@H]1[C@@H](OC(C)=O)[C@H](n2cc(-c3ccc(S(N)(=O)=O)cc3)nn2)O[C@H](COP(=O)(OCCSC(=O)C(C)(C)C)OCCSC(=O)C(C)(C)C)[C@H]1OC(C)=O` was 6.87. Next, `CC(=O)O[C@@H]1[C@@H](OC(C)=O)[C@H](S(N)(=O)=O)O[C@H](COP(=O)(OCCSC(=O)C(C)(C)C)OCCSC(=O)C(C)(C)C)[C@H]1OC(C)=O`: 6.81.
